{"source": "patent US10030260B2", "about": "“Inducible reconstitution and real-time quantitative kinetic system for the study of intramembrane enzymes” (THE JOHNS HOPKINS UNIVERSITY, priority 2012, dated 2018)", "key": {"HA-EcGlpG": {"molecular_target": "T1, HA-EcGlpG (Escherichia coli, UniProt P09391)", "T1 construct": "GST (cleaved yes); made in house; host or cells: E. coli C43 (DE3)", "T1 sequence (P09391 1-276)": "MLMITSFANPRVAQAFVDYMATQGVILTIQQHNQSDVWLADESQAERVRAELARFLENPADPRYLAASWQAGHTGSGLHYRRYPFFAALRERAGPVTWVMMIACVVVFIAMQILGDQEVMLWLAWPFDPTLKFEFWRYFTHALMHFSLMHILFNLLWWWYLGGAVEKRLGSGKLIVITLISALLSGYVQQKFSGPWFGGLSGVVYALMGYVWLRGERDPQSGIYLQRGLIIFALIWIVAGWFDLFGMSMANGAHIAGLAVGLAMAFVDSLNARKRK", "assay": "Proteolysis assay in detergent micelles", "assay_type": "biochemical", "conditions": "faster in detergent", "procedure": "Cleavage reactions of APP+Spi7-Flag were performed as described previously and imaged with an Odyssey infrared scanner (LiCor Biosciences) (Baker and Urban, 2012; Baker et al., 2007). […] Reactions were quenched and analyzed on 16% tricine gels as above. Actual substrate concentrations were calibrated using FITC-TatA standards analyzed in parallel."}, "E. coli GlpG": {"molecular_target": "T2, E. coli GlpG (Escherichia coli, UniProt P09391)", "T2 construct": "GST (cleaved yes); made in house; host or cells: E. coli C43 (DE3)", "assay": "Inducible reconstitution and real-time proteolysis assay in proteoliposomes", "assay_type": "biochemical", "procedure": "(§1) 30 μg of E. coli liposomes were mixed with 50 mM NaAcetate pH 4.0, 150 mM NaCl, 0.05 to 500 pmoles of rhomboid enzyme, and 20 to 1600 pmoles of FITC-substrate. This co-reconstitution mix was diluted 20-fold with 12.5 mM NaAcetate pH 4.0, 37.5 mM NaCl to reduce detergent below its critical micelle concentration and promote reconstitution. Proteoliposomes were collected by ultracentrifugation at 600,000 g for 20 minutes in an Optima MAX-XP ultracentrifuge (Beckman). […] Fluorescence was monitored every minute using monochromators set to wavelengths of 485±20 nm (excitation) and 528±20 nm (emission). Alternatively, time points were quenched with equal volumes of 2× Tricine SDS-sample buffer, resolved on 16% Tricine gels (Life Technologies), and imaged with a blue laser and fluorescein emission filters on a Typhoon Imager (GE Healthcare). APP+Spi7-Flag and HA-EcGlpG were co-reconstituted as above, resolved by SDS-PAGE, detected by 2-color anti-Flag and anti-HA western analysis, and imaged with an Odyssey infrared scanner (LiCor Biosciences).\nAll data were analyzed and graphed using the R language and environment. Initial rates were extracted from real-time curves between 4 and 14 minutes using the slope (m) in a linear model: y=mx+b. Initial rates versus substrate concentration of reconstituted reactions were modeled using the Hill-modified Michaelis Menten equation: v0=(Vmax*[S0]^h)/(Km^h+[S0]^h). […]\nTo establish controlled conditions for a Michaelis-Menten kinetic system, we lowered GlpG levels to 4 pmoles while varying substrate from 20 to 1600 pmoles and co-reconstituted both into 200 nm proteoliposomes comprised of E. coli lipids to preserve its physiological environment as much as possible (FIG. 9A). […] Finally, FITC-TatA reconstituted in both orientations in approximately equal proportions, as quantified by reacting single engineered cysteines with membrane-impermeable dyes (FIG. 3A). […]"}, "[1]": {"molecular_target": "T3, inactive EcGlpG mutants (His-EcGlpG C104A+H254A; HA-EcGlpG S201A+H254A) (Escherichia coli, UniProt P09391, C104A/H254A)", "T3 construct": "made in house", "T3 sequence (P09391 whole entry C104A/H254A)": "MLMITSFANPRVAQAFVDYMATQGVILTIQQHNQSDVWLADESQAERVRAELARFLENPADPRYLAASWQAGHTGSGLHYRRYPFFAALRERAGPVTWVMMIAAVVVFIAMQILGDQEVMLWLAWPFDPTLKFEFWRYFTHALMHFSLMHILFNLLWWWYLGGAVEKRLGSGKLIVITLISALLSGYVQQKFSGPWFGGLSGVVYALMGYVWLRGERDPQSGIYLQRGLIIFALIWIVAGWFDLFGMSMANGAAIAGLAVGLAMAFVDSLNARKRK", "assay_type": "binding", "conditions": "co-precipitation", "method": "(§2) 2.5 μM His-tagged EcGlpG C104A+H254A with 70 μM FITC-TatA was incubated with pre-equilibrated Ni^2+-NTA resin (Qiagen) for 3 hours at room temperature. The resin was washed, and bound proteins were eluted with SDS-sample buffer for 30 minutes. FITC-TatA was detected as above using a 16% Tricine gel and a Typhoon Imager. His-EcGlpG C104A+H254A was detected by western blot with the mouse anti-penta-His antibody (Qiagen), and imaged with an Odyssey infrared scanner (LiCor Biosciences).\n(§3) Two Superdex 200 PC 3.2/30 high-resolution gel filtration columns (GE Healthcare) were connected in tandem to a ProStar 410 HPLC system (Agilent/Varian), and equilibrated with 9.5 μM FITC-TatA in 2 mM phosphate buffer pH 7.4, 25 mM Tris pH 7.4, 120 mM NaCl, 0.15% Sarkosyl, 0.1% DDM, 1 mM DTT. 20 μM HA-EcGlpG S201A+H254A was preincubated with 9.5 μM FITC-TatA, and 50 μL was injected using an Autosampler 410 onto the columns at a flow rate of 0.05 mL/minute. Elution was monitored by absorbance at all wavelengths between 200 to 600 nm simultaneously using a PDA 330 detector. The FITC-TatA peak was quantified relative to known FITC-TatA concentration standards that were run on the columns equilibrated with 9.5 μM FITC alone in buffer. Conventional gel filtration was conducted under similar conditions, except the columns were equilibrated with buffer lacking FITC-TatA."}, "[2]": {"molecular_target": "inactive EcGlpG mutants (His-EcGlpG C104A+H254A; HA-EcGlpG S201A+H254A)", "assay_type": "binding, Escherichia coli", "conditions": "gel filtration and co-precipitation, non-equilibrium; read-out: Kd (low affinity)", "method": "as §2, §3"}, "[3]": {"molecular_target": "T4, catalytically inactive TMR-GlpG (C104A+W196TMR+H254A) (Escherichia coli, UniProt P09391, C104A/H254A/W196C)", "T4 construct": "His (N); TMR (tetramethylrhodamine-5-maleimide) dye on the side chain of Cys196; made in house", "T4 sequence (P09391 1-276 C104A/W196C/H254A)": "T1 sequence (P09391 1-276) with C104A, W196C, H254A", "assay": "FRET analysis of protease-substrate affinity in membranes", "assay_type": "binding", "conditions": "in proteoliposomes", "procedure": "Purified N-terminally His-tagged EcGlpG H254A+C104A+W196C protein was labeled at the single cysteine residue with the FRET acceptor tetramethylrhodamine-5-maleimide (TMR) (Life Technologies). Reconstitutions into E. coli liposomes were performed as described above, except that 30 pmoles of TMR-labeled protein was mixed with 25-800 pmoles of the FITC-TatA ligand. Following reconstitution, the samples were incubated at 37° C. in a Synergy H4 Hybrid plate reader. Fluorescence was measured with excitation at 485 nm and emission from 510-600 nm in 5 nm intervals. The FRET interaction was calculated at the 580 nm emission wavelength by subtracting the TMR-labeled GlpG protein alone and the FITC-TatA alone samples from the sample containing both macromolecules."}, "EcGlpG": {"molecular_target": "EcGlpG (Escherichia coli, UniProt P09391)", "conditions": "37° C. for 3 hours", "procedure": "Rhomboid protein in 50 mM Tris pH 7.4, 150 mM NaCl, 0.1% DDM was incubated with either 10% DMSO only or carrying […] JLK6 at 37° C. for 3 hours, purified using a C4 ZipTip, and analyzed by mass spectrometry as described previously (Pierrat et al., 2011)."}, "[4]": {"tested_on": "three different rhomboid proteases", "assay": "Manual 384-well compound screen in proteoliposomes", "assay_type": "biochemical", "conditions": "1 hour at 37° C., no compound pre-incubation", "procedure": "FIG. 12. Assay Evaluation in Manual Compound Screens. […] B. We assayed 3 different rhomboid proteases independently in hand-pipetted 384-well screens against a custom-assembled library of protease inhibitors, combinatorial compounds, and membrane enzyme inhibitors (all in DMSO). Assays were conducted for 1 hour at 37° C. and fluorescence intensity was read every 2 minutes. Graphed are the 60 minute values, with the last (rightmost) 7 wells being the isocoumarin inhibition controls.\nAn important consideration is assay suitability for HTS, which we evaluated by manually screening a diverse panel of class-specific protease inhibitors (natural products, sulphonyl fluorides, hydroxamate-based metalloprotease inhibitors, vinyl sulfones, isocoumarins, chloromethyl ketones, proteasomal inhibitors, aspartyl protease inhibitors, cysteine protease inhibitors), a combinatorial library of peptide diphenyl-phosphonates, and over a dozen lipid enzyme inhibitors/drugs (some of which are known to affect other intramembrane proteases). We hand-assembled this library of 111 compounds because it represents likely candidates for real rhomboid inhibitors on the one hand, and on the other poses challenges for assay performance because most are chemically-reactive (warhead) molecules. […]"}, "HA-PsAarA": {"molecular_target": "T5, HA-PsAarA (Providencia stuartii, UniProt P46116)", "T5 construct": "GST (cleaved yes); made in house; host or cells: E. coli C43 (DE3)", "T5 sequence (P46116 whole entry, looked up)": "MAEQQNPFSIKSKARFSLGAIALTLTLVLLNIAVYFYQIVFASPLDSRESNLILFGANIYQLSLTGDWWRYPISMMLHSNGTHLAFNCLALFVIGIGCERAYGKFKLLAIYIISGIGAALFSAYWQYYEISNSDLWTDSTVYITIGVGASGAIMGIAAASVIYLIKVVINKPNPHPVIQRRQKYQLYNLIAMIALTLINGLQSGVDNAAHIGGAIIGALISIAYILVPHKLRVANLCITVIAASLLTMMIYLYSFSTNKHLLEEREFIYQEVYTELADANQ", "assay": "Real-time kinetics of substrate variants in proteoliposomes", "assay_type": "biochemical", "conditions": "in words", "procedure": "as §1\nAll data were analyzed and graphed using the R language and environment. Initial rates were extracted from real-time curves between 4 and 14 minutes using the slope (m) in a linear model: y=mx+b. […]"}}, "note": "Residue numbers refer to the chain shown, from its start. “Also recorded” adds a separate entry of the source. Where a SMILES comes first, the peptide text is derived from it. The star is where a group is joined. FITC = O=C1OC2(c3ccc(O)cc3Oc3cc(O)ccc32)c2ccc(NC(=S)*)cc21; βAla = NCCC(=O)O"}
{"compound": "CC[C@H](C)[C@H](NC(=O)[C@H](CC(C)C)NC(=O)[C@@H](NC(=O)[C@@H](NC(=O)[C@H](CC(C)C)NC(=O)[C@H](CC(C)C)NC(=O)[C@H](C)NC(=O)[C@@H](NC(=O)[C@@H](NC(=O)[C@@H](NC(=O)[C@H](CC(C)C)NC(=O)[C@H](CCC(N)=O)NC(=O)[C@H](Cc1c[nH]c2ccccc12)NC(=O)[C@@H]1CCCN1C(=O)[C@H](CO)NC(=O)CNC(=O)[C@H](Cc1ccccc1)NC(=O)[C@H](C)NC(=O)[C@H](C)NC(=O)[C@@H](NC(=O)[C@H](C)NC(=O)[C@@H](NC(=O)[C@@H](NC(=O)[C@H](CO)NC(=O)[C@H](CCC(=O)O)NC(=O)[C@H](CCSC)NC(=O)CCNC(=S)Nc1ccc2c(c1)C(=O)OC21c2ccc(O)cc2Oc2cc(O)ccc21)[C@@H](C)O)[C@@H](C)CC)[C@@H](C)O)[C@@H](C)CC)[C@@H](C)CC)[C@@H](C)CC)[C@@H](C)CC)[C@@H](C)CC)C(=O)N[C@@H](Cc1ccccc1)C(=O)NCC(=O)N[C@H](C(=O)N[C@@H](CCCCN)C(=O)N[C@@H](CCCCN)C(=O)N[C@@H](CC(C)C)C(=O)N[C@@H](CCCNC(=N)N)C(N)=O)[C@@H](C)O", "note": "[FITC-TatA] ({FITC-βAla}-MESTIATAAFGSPWQLIIIALLIILIFGTKKLR-NH2)", "values": [{"measurement": "kcat in detergent relative to proteoliposomes", "setting": "HA-EcGlpG", "result": "~6.5", "unit": "fold"}, {"measurement": "KM", "setting": "E. coli GlpG; proteoliposomes of E. coli lipids, relative to phospholipid", "result": "0.14±0.02", "unit": "mole percent"}, {"measurement": "kcat", "setting": "E. coli GlpG; proteoliposomes, enzyme saturated with substrate", "result": "0.0063 ± 0.00021", "unit": "s⁻¹"}, {"measurement": "FITC-TatA eluting with His-EcGlpG", "setting": "[1]", "result": "< 0.1", "unit": "%"}, {"measurement": "Kd", "setting": "[2]", "result": "> 800", "unit": "µM"}, {"measurement": "apparent Kd", "setting": "[3]", "result": "0.08±0.026", "unit": "mole percent"}]}
{"compound": "COc1oc(=O)c2cc(N)ccc2c1Cl", "note": "[JLK6, reference compound]", "values": [{"measurement": "effect on fluorescence signal and cleavage product of FITC-TatA cleavage", "setting": "E. coli GlpG; proteoliposomes, 37° C., pretreatment with inhibitor", "result": "blocked generation of the fluorescence signal and cleavage product; also recorded: abrogated signal to background"}, {"measurement": "mass shift of enzyme after incubation with inhibitor", "setting": "EcGlpG", "result": "complete mass shift"}]}
{"compound": "O=c1occc2ccccc12", "note": "[isocoumarin]", "values": [{"measurement": "inhibition in screen", "setting": "[4]", "result": "obvious evidence of inhibition of all three rhomboid proteases"}]}
{"compound": "Spitz: Drosophila signaling molecule Spitz residues 135-168 of 186, FITC-labelled substrate", "values": [{"measurement": "kcat and KM relative to TatA", "setting": "HA-PsAarA", "result": "lower kcat without any significant change in KM"}]}
